Here are results for 19 compounds from patent publication US9840478B2 (MERCK SHARP & DOHME CORP., priority 2013, dated 2017).

One assay relates to HIV-1 (H9IIIB strain). Kind of assay: Cell-based HIV infection assay using a reporter (Cell-Based), MT4-GFP cells. The note with it: 50% normal human serum, mean of at least two independent experiments, read-out: Cell-based IP. In outline: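 IC50 from 4-parameter dose-response of % viral growth inhibition, using the 48 h/24 h infected-cell ratio scaled between DMSO and a protease/integrase/NNRTI triple-drug control. Assay used MT4 cells with HIV-LTR-GFP reporter, pre-infected 24 h with HIV-1 H9IIIB, in 50% normal human serum.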

A further assay has as its target T1, wildtype HIV-1 protease (Human immunodeficiency virus type 1 group M subtype B, UniProt P04585).
T1 construct: preincubated with the HIV-1 protease (wild type) enzyme in assay buffer; made in house; host or cells: Escherichia coli
In words: Assay for inhibition of microbial expressed HIV protease (Pepcleav). Type of assay: biochemical. The following applies: wildtype HIV-1 protease expressed in E. coli; peptide substrate; mean of at least two independent experiments. On the procedure: Assay for Inhibition of Microbial Expressed HIV Protease (“Pepcleav”)
Studies of the inhibition of the wildtype HIV-1 protease (which was expressed in Escherichia coli) were carried out with a peptide substrate [Val-Ser-Gln-Asn-(βnaphtyl)Ala-Pro-Ile-Val]. The inhibitor is first preincubated with the HIV-1 protease (wild type) enzyme in assay buffer (50 mM sodium acetate, pH 5.5, 100 mM NaCl, and 0.1% BSA) for 30 minutes at room temperature. Substrate is added to 400 micromolar in a total volume of 20 microliters containing 20 picomolar HIV-1 protease (final) and the reaction is incubated for 1 hour at 30° C. The reaction is quenched with the addition of formic acid and indinavir to 0.012% and 150 nM final concentrations, respectively. The product formation is determined after separation of product and substrate on a Zorbax Eclipse XDB-C18 column connected to an API 4000 mass spectrometer (Applied Biosystems) with multiple reaction monitoring (transitions were 644.5/428.9 and 615.4/422.2 (M1/M3) for product and indinavir respectively). The extent of inhibition of the reaction is determined from the peak area of the products. Analysis of the products, independently synthesized, provided quantitation standards and confirmation of the product composition.

Setting [1] is: Human immunodeficiency virus 1, MT4-GFP cells infected with HIV-1 H9IIIB.

Structures are written as SMILES. Read-outs that look alike come from different tables or passages of the source.

Regarding `N[C@H](C(=O)Nc1cncc(F)c1CC[C@H]1CNCCN1S(=O)(=O)c1ccccc1)C(c1ccc(F)cc1)c1ccc(F)cc1` [Example 22, (S)-2-amino-N-(5-fluoro-4-(2-((S)-1-(phenylsulfonyl)piperazin-2-yl)ethyl)pyridin-3-yl)-3,3-bis(4-fluorophenyl)propanamide], the IC50 with HIV-1 (H9IIIB strain) (setting [1]) was 10 nM; at wildtype HIV-1 protease, 0.2 nM.

In the case of `COC(=O)N[C@H](C(=O)Nc1cccc(F)c1CC[C@H]1CNCCN1S(=O)(=O)c1ccccc1)C(c1cccc(F)c1)c1cccc(F)c1` [Example 3, Methyl ((S)-1-((3-fluoro-2-(2-((S)-1-(phenylsulfonyl)piperazin-2-yl)ethyl)phenyl)amino)-3,3-bis(3-fluorophenyl)-1-oxopropan-2-yl)carbamate], the IC50 in the assay with HIV-1 (H9IIIB strain) (setting [1]) turned out to be 4 nM; against wildtype HIV-1 protease, 0.48 nM.

As to `CS(=O)(=O)NC1CCN(S(=O)(=O)N2CCNC[C@@H]2CCc2c(F)cncc2NC(=O)C[C@@H](c2ccc(F)cc2)c2cc(F)cc(F)c2)CC1` [Example 334, (3S)-3-(3,5-difluorophenyl)-N-(5-fluoro-4-{2-[(2S)-1-({4-[(methylsulfonyl)amino]piperidin-1-yl}sulfonyl)piperazin-2-yl]ethyl}pyridin-3-yl)-3-(4-fluorophenyl)propanamide], the IC50 came out at 450 nM with HIV-1 (H9IIIB strain) (setting [1]) and 10 nM at wildtype HIV-1 protease.

With `O=C(C[C@@H](c1ccc(F)cc1)c1cc(F)cc(F)c1)Nc1cncc(F)c1CC[C@H]1CNCCN1S(=O)(=O)N1CC[C@@H](NC(=O)C(F)(F)F)C1` [Example 338, (3S)-3-(3,5-difluorophenyl)-3-(4-fluorophenyl)-N-(5-fluoro-4-{2-[(2S)-1-({(3R)-3-[(trifluoroacetyl)amino]pyrrolidin-1-yl}sulfonyl)piperazin-2-yl]ethyl}pyridin-3-yl)propanamide], the values for the IC50 in the assay with HIV-1 (H9IIIB strain) (setting [1]) and on wildtype HIV-1 protease were 660 nM and 130 nM, respectively.

Consider `N[C@H](C(=O)Nc1cccc(F)c1CC[C@H]1CNCCN1S(=O)(=O)c1ccccc1)C(c1cccc(F)c1)c1cccc(F)c1` [Example 40, 3-fluoro-β-(3-fluorophenyl)-N-(3-fluoro-2-{2-[(2S)-1-(phenylsulfonyl)piperazin-2-yl]ethyl}phenyl)-L-phenylalaninamide], for which the IC50 is 4.8 nM in the assay on HIV-1 (H9IIIB strain) (setting [1]) and 0.03 nM at wildtype HIV-1 protease.

With `Nc1ccc(S(=O)(=O)N2CCNC[C@@H]2CCc2c(F)cncc2NC(=O)[C@@H](N)C(c2ccc(F)cc2)c2ccc(F)cc2)cc1` [Example 24, (S)-2-amino-N-(4-(2-((S)-1-((4-aminophenyl)sulfonyl)piperazin-2-yl)ethyl)-5-fluoropyridin-3-yl)-3,3-bis(4-fluorophenyl) propanamide], the IC50 against wildtype HIV-1 protease came to 0.2 nM.

Turning to `CC(=O)NC1CCN(S(=O)(=O)N2CCNC[C@@H]2CCc2c(F)cncc2NC(=O)C[C@@H](c2ccc(F)cc2)c2cc(F)cc(F)c2)CC1` [Example 335, (3S)-N-(4-{2-[(2S)-1-{[4-(acetylamino)piperidin-1-yl]sulfonyl}piperazin-2-yl]ethyl}-5-fluroopyridin-3-yl)-3-(3,5-difluorophenyl)-3-(4-fluorophenyl)propanamide], the values for the IC50 with HIV-1 (H9IIIB strain) (setting [1]) and against wildtype HIV-1 protease were 650 nM and 24 nM, respectively.

Consider `O=C(CC1(c2ccccc2)CCCNC1)Nc1cncc(F)c1CC[C@H]1CNCCN1S(=O)(=O)C1CC1` (stereo partly drawn) [Example 63, N-(4-{2-[(2S)-1-(cyclopropylsulfonyl)piperazin-2-yl]ethyl}-5-fluoropyridin-3-yl)-2-(3-phenylpiperidin-3-yl)acetamide], for which the IC50 at wildtype HIV-1 protease was 1300 nM.

On wildtype HIV-1 protease, `CS(=O)(=O)N1CCNC[C@@H]1CCc1c(F)cncc1NC(=O)[C@@H](N)[C@@H](c1ccc(F)cc1)c1cc(F)cc(F)c1` [Example 26, (2S,3S)-2-amino-3-(3,5-difluorophenyl)-N-(5-fluoro-4-(2-((S)-1-(methylsulfonyl)piperazin-2-yl)ethyl)pyridin-3-yl)-3-(4-fluorophenyl)propanamide] yielded an IC50 of 3.5 nM.

On to `CC(C)[C@H](c1ccc(F)cc1)[C@H](N)C(=O)Nc1cncc(F)c1CC[C@H]1CNCCN1S(=O)(=O)C1CC1` [Example 64, (βR)-N-(4-{2-[(2S)-1-(cyclopropylsulfonyl)piperazin-2-yl]ethyl}-5-fluoropyridin-3-yl)-4-fluoro-β-(1-methylethyl)-L-phenylalaninamide], for which the IC50 was determined as 95 nM with HIV-1 (H9IIIB strain) (setting [1]) and 70 nM at wildtype HIV-1 protease.

`O=C(C[C@@H](c1ccc(F)cc1)c1cc(F)cc(F)c1)Nc1cncc(F)c1CC[C@H]1CNCCN1S(=O)(=O)C1CC1` [Example 303, (3S)-N-(4-{2-[(2S)-1-(cyclopropylsulfonyl)piperazin-2-yl]ethyl}-5-fluoropyridin-3-yl)-3-(3,5-difluorophenyl)-3-(4-fluorophenyl)propanamide]: the figures for the IC50 with HIV-1 (H9IIIB strain) (setting [1]) and against wildtype HIV-1 protease were 14 nM and 5 nM, respectively.

Compound `O=C(C[C@@H](c1ccc(F)cc1)c1cc(F)cc(F)c1)Nc1cncc(F)c1CC[C@H]1CNCCN1C(=O)Nc1ccccc1` [Example 342, (2S)-2-[2-(3-{[(3S)-3-(3,5-difluorophenyl)-3-(4-fluorophenyl)propanoyl]amino}-5-fluoropyridin-4-yl)ethyl]-N-phenylpiperazine-1-carboxamide] had an IC50 at wildtype HIV-1 protease of 250 nM.

In the case of `CS(=O)(=O)C1CCN(S(=O)(=O)N2CCNC[C@@H]2CCc2c(F)cncc2NC(=O)C[C@@H](c2ccc(F)cc2)c2cc(F)cc(F)c2)CC1` [Example 336, (3S)-3-(3,5-difluorophenyl)-N-(5-fluoro-4-{2-[(2S)-1-{[4-(methylsulfonyl)piperidin-1-yl]sulfonyl}piperazin-2-yl]ethyl}pyridin-3-yl)-3-(4-fluorophenyl)propanamide], the IC50 in the assay with HIV-1 (H9IIIB strain) (setting [1]) stood at 240 nM; against wildtype HIV-1 protease it was 13 nM.

For the compound `CS(=O)(=O)N1CCNC[C@H]1CCc1c(F)cncc1NC(=O)[C@@H](N)C(c1ccc(F)cc1)c1ccc(F)cc1` [Example 2, 2S-Amino-3,3-di-(4-fluorophenyl)-N-(5-fluoro-4-(2-(1-methylsulfonylpiperazin-2-yl)ethyl)pyridin-3-yl)propanamide], the IC50 against wildtype HIV-1 protease came out at 1400 nM.

Regarding `N[C@H](C(=O)Nc1cncc(F)c1CC[C@@H]1CNCCN1S(=O)(=O)c1ccccc1)C(c1ccc(F)cc1)c1ccc(F)cc1` [Example 23, (S)-2-amino-N-(5-fluoro-4-(2-((R)-1-(phenylsulfonyl)piperazin-2-yl)ethyl)pyridin-3-yl)-3,3-bis(4-fluorophenyl) propanamide], at wildtype HIV-1 protease, the IC50 was 10 nM.

For the compound `N[C@H](C(=O)Nc1cncc(F)c1CCC1CNCCN1S(=O)(=O)Cc1ccccc1)C(c1ccc(F)cc1)c1ccc(F)cc1` (stereo partly drawn) [Example 21, N-(4-{2-[1-(benzylsulfonyl)piperazin-2-yl]ethyl}-5-fluoropyridin-3-yl)-4-fluoro-β-(4-fluorophenyl)-L-phenylalaninamide], the IC50 on wildtype HIV-1 protease came out at 3.4 nM.

For `C[C@H]1CNC[C@H](CCc2c(F)cccc2NC(=O)[C@@H](N)[C@@H](c2ccc(F)cc2)c2cc(F)cc(F)c2)N1S(C)(=O)=O` [Example 96, (βS)-β-(3,5-difluorophenyl)-4-fluoro-N-(3-fluoro-2-{2-[(2S,6S)-6-methyl-1-(methylsulfonyl)piperazin-2-yl]ethyl}phenyl)-L-phenylalaninamide], the IC50 in the assay with HIV-1 (H9IIIB strain) (MT4-GFP cells infected with HIV-1 H9IIIB) was 24 nM; against wildtype HIV-1 protease, 6.1 nM.

Take `Nc1ccc(S(=O)(=O)N2CCNC[C@H]2CCc2c(F)cncc2NC(=O)[C@@H](N)C(c2ccc(F)cc2)c2ccc(F)cc2)cc1` [Example 25, (S)-2-amino-N-(4-(2-((R)-1-((4-aminophenyl)sulfonyl)piperazin-2-yl)ethyl)-5-fluoropyridin-3-yl)-3,3-bis(4-fluorophenyl) propanamide]: the IC50 against wildtype HIV-1 protease is 1.3 nM.

Regarding `CS(=O)(=O)N1CCNC[C@@H]1CCc1c(F)cncc1NC(=O)[C@@H](N)C(c1ccc(F)cc1)c1ccc(F)cc1` [Example 1, 2S-Amino-3,3-di-(4-fluorophenyl)-N-(5-fluoro-4-(2-(1-methylsulfonylpiperazin-2-yl)ethyl)pyridin-3-yl)propanamide], the IC50 with HIV-1 (H9IIIB strain) (setting [1]) was 67 nM; against wildtype HIV-1 protease, 9.7 nM.
